For this experiment, the system named is LDL. The settings on record: 10-fold molar excess of choline-phosphate, no SMase. As for the experimental part:
Next it was determined which of the three consequences of SMase enzymatic activity, namely, generation of choline-phosphate, generation of ceramide, and depletion of SM, is responsible for LDL aggregation. […] Incubating LDL with a 10-fold molar excess of choline-phosphate was performed.

`C[N+](C)(C)CCOP(=O)(O)O` [choline-phosphate]: the “turbidity of LDL” value was “failed to increase the turbidity of LDL”.
